Assay results as given in patent US20200207989A1, “FLUORESCENT PROBE FOR ALDH3A1 DETECTION” (The University of Tokyo, priority 2016, published 2020).

Columns and labels:
OE21 cell line = assay: Cell imaging of OE21 cells against CB7 negative control; assay type: cell-based; details: probe 5: 40 μM, 90 minutes at 37° C., CB7 10 μM control
Description: 40 μM of probe 5 was added to culture medium (RPMI 1640, 10% FBS, 15 mM HEPES, phenol red-free). After culturing for 90 minutes at 37° C., the cells were washed using a chilled medium and examined under a confocal microscope. A sample with a specific ALDH3A1 inhibitor (1-[(4-fluorophenyl)sulfonyl]-2-methyl-1H-benzimidazole, CB7, 10 μM) added served as a negative control. Excitation was provided by a 488 nm laser, and observation was carried out at wavelengths of […] in detection.

ALDH1A1 [1] = molecular target: T1, ALDH1A1 (Homo sapiens, UniProt P00352); assay: Kinetic characteristics (Michaelis-Menten Km, Kcat) with ALDH1A1; assay type: biochemical; details: five minutes at 37° C., Tris buffer pH 7.5
T1 construct: purchased
T1 sequence (P00352 1-501): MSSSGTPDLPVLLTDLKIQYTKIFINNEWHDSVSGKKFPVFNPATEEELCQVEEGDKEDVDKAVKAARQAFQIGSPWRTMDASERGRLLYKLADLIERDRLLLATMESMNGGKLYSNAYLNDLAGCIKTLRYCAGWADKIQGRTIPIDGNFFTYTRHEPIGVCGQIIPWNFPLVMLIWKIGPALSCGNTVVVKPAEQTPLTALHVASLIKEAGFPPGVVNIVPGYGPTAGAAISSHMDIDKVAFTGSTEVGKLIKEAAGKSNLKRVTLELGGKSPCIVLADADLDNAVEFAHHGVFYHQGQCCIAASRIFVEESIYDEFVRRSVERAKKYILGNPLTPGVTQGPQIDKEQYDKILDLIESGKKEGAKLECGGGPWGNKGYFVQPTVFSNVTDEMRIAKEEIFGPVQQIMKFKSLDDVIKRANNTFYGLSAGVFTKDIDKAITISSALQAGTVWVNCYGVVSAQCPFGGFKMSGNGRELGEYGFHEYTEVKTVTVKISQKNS
Description: (§1) Human recombinant ALDH1A1/1A3/3A1 was purchased, and 100 mM of KCL, 2 mM of DTT, 1 mM of NAD(P), 10-100 nM of each ALDH, and 10-80 μM of each compound were mixed in Tris buffer (100 mM, pH 7.5), reacted for 30 minutes at 37° C., an equal amount of acetonitrile added, and the reaction stopped. The reaction solution was analyzed by UPLC/MS/MS (Waters). The UPCL chromatogram was carried out over five minutes at a flow rate of 800 μL/min by a linear gradient from 5% acetonitrile 0.01 M ammonium formate/water to 95% acetonitrile 0.01 M ammonium formate/water. An aldehyde-form and carboxylic acid-form probe were detected by the absorbance at a wavelength of 504 nm, and m/z of the MS spectrum at each peak was confirmed to agree with the expected m/z.
(§2) For the reaction, 100 mM of KCL, 2 mM of DTT, 1 mM of NAD(P), and five to six concentrations within the range of 10-100 nM of each ALDH and 0.1-80 μM of each probe were selected, mixed in Tris buffer (100 mM, pH 7.5), and reacted for five minutes at 37° C.; an equal amount of acetonitrile was added, and the reaction was stopped. Detection of the aldehyde-form/carboxylic acid-form probes was carried out using the same method as described above by UPLC/MS/MS. Km and Kcat were calculated by fitting the reaction rate at each probe concentration obtained to the Michaelis-Menten equation. A Kaleida Graph ver. 4.1 (Hulinks, Inc.) was used in fitting.

ALDH1A1 [2] = molecular target: T1, ALDH1A1; assay: Reactivity of probes to recombinant ALDH1A1 (UPLC/MS/MS detection of aldehyde and carboxylic acid forms); assay type: biochemical; details: 10-100 nM ALDH, 10-80 μM compound, Tris buffer pH 7.5, 30 minutes at 37° C., ◯/X not defined by a legend
Description: as §1

ALDH3A1 = molecular target: T2, ALDH3A1 (Homo sapiens, UniProt P30838); assay: Kinetic characteristics (Michaelis-Menten Km, Kcat) with ALDH3A1; assay type: biochemical
T2 construct: purchased
T2 sequence (P30838 1-453): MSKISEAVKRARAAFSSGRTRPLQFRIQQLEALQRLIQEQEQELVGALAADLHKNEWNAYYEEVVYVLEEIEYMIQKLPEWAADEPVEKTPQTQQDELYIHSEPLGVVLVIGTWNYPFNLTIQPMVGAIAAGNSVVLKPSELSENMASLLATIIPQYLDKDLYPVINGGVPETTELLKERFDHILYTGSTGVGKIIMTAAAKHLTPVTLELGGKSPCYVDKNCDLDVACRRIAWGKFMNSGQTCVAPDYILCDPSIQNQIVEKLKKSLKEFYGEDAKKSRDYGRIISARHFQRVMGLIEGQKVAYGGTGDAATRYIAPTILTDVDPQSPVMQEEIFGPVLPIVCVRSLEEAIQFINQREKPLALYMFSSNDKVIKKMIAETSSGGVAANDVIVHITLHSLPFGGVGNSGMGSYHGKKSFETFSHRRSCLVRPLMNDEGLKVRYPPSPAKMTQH
Description: as §1, §2
The Kcat ratio (Kcat of ALDH3A1/Kcat of ALDH1A1) was calculated for probe 1, probe 3, and probe 5 as an indicator of ALDH1A1/ALDH3A1 specificity because the probe reaction rate at the actual probe use concentration is believed to be close to Vmax since Km is relatively small (Table 5).

[3] = five minutes at 37° C., Tris buffer pH 7.5

N-(4-formylbenzyl)-3-(1,3-dimethyl-4,4-difluoro-4-bora-3a,4a-diaza-s-indacen-5-yl)-propionamide [Probe 1]
Brightness of cells in imaging compared to negative control (CB7) (OE21 cell line): no evident difference in brightness could be found in comparison to the negative control | Kcat ALDH1A1 (ALDH1A1 [1]): 1.36 ± 0.045 s⁻¹ | Km (ALDH1A1 [1]): < 0.2 µM | Reactivity to ALDH1A1 (ALDH1A1 [2]): ◯ | Reactivity to ALDH1A1 (ALDH1A1 [2]; listed as Compound 1): reacted with all three of the isoforms tested | Kcat ALDH3A1 (ALDH3A1; [3]): 1.12 ± 0.08 s⁻¹ | Km (ALDH3A1; [3]): 58.9 ± 7.6 µM | Kcat ratio (Kcat of ALDH3A1/Kcat of ALDH1A1) (ALDH3A1; indicator of ALDH1A1/ALDH3A1 specificity): 0.8
